# Measurements as given in patent US20200188469A1, “COMPOUNDS AND METHODS FOR INHIBITING CDK5 ALLEVIATE CARDIAC PHENOTYPES IN TIMOTHY SYNDROME AND RELATED CONDITIONS” (priority 2017, published 2020).
# “Also recorded” adds a separate entry of the source.
# Experiments:
# [1] = test system: Timothy syndrome cardiomyocytes; assay: Contraction assay with Matlab-based analysis and calcium imaging (Roscovitine analog and CDK inhibitor tests); format: cell-based, human; settings: two rounds: cardiomyocyte clusters 24 hours, intact monolayer 2 hours after treatment; 5 μM, (R)-CR8 1 or 2 μM
# Procedure: Two rounds of chemical tests were conducted to test the compounds. The first round of chemical test was conducted using Timothy syndrome cardiomyocyte clusters isolated from the monolayer cardiomyocytes to screen the compounds efficiently and to identify the positive compounds that could increase the spontaneous beating rate and decrease the contraction irregularity of the Timothy syndrome cardiomyocyte clusters (FIG. 1C).
# The working solution of each compound was made by diluting the stock solution in our cardiomyocyte culture media to a final concentration of 5 μM except for (R)-CR8, which was diluted to a final concentration of 1 or 2 μM. The contraction analysis was performed as reported previously (Yazawa et al., 2011). The movies were taken before the treatment, and 24 hours after the treatment of each compound from the Timothy syndrome cardiomyocyte clusters isolated from the monolayer cardiomyocytes for the first round of test. The movies were taken before the treatment, and 2 hours after the treatment of each positive compound on the intact monolayer Timothy syndrome cardiomyocytes for the second round of test. The contraction rate and the irregularity of each sample before and after treatment were compared using paired Student t-test.
# [2] = biological target: T1, CDK5/p35 (Homo sapiens, UniProt Q00535); assay: In vitro kinase assay (ADP-Glo luminescence); format: biochemical; settings: wild-type II-III loop or C-term of Cav1.2 as substrates
# T1 construct: purchased Promega V3271
# Description: To determine whether CDK5 phosphorylates Cav1.2, an in vitro kinase assay was designed. The wild-type II-III loop or the C-term of Cav1.2 was used as the substrates in this assay. Mutant II-III loop and mutant C-term constructs were generated with substitutions of serine/threonine to glycine or alanine in all CDK5 consensus sequences as negative controls. The phosphorylation of the substrates by CDK5 consumes ATP and produces ADP, which is then converted into luminescence by detection reagents in the assay (FIG. 3D). The luminescence signal was reduced when the CDK5 inhibitor, PHA-793887 was added to the reactions using wild-type II-III loop or C-term as the substrates. […]
# To prepare the substrates, the HEK 293T cells were transfected with the plasmid containing either the FLAG-tagged wild-type II-III loop or mutant II-III loop or wild-type C-terminus or mutant C-terminus using Lipofectamine 2000 (Thermo Fisher Scientific) following the manufacturer's protocol 24 hours after plating. […] A series of samples for a standard curve were prepared based on the manufacturer's instructions to determine the ATP-ADP conversion from the luminescence signals in every round of experiment. […] 20 ul of the samples from each tube was then transferred into a 96 well microplate and the luminescence was measured with the GloMax® 96 Microplate Luminometer (Promega).
# [3] = test system: Cav1.2 channels; assay: Voltage-clamp recordings of Ba2+ currents (voltage-dependent inactivation of Cav1.2); format: cell-based, human; settings: TS cardiomyocytes with CDK5 DN expression; 5 μM, 3 min
# Procedure: The Timothy syndrome and control iPSCs were differentiated into cardiomyocytes following a protocol reported previously (Song et al., 2015) and infected with the lentiviruses at day 19-21 or day 25-27 after cardiac differentiation. The cardiomyocytes were dissociated into single cells for whole-cell patch-clamp recordings at day 31. Whole-cell patch-clamp recordings of iPSC-derived cardiomyocytes were conducted using a MultiClap 700B patch-clamp amplifier (Molecular Devices) and an inverted microscope equipped with differential interface optics (Nikon, Ti-U). The glass pipettes were prepared using borosilicate glass (Sutter Instrument, BF150-110-10) using a micropipette puller (Sutter Instrument, Model P-97). Voltage-clamp measurements were conducted using an extracellular solution consisting of 5 mM BaCl2, 160 mM TEA and 10 mM HEPES (pH7.4 at 25° C.) and a pipette solution of 125 mM CsCl, 0.1 mM CaCl2, 10 mM EGTA, 1 mM MgCl2, 4 mM MgATP and 10 mM HEPES (pH 7.4 with CsOH at 25° C.). Two pulse protocols were used. One protocol was that cells were held at −90 mV and then depolarized to −10 mV for 400 ms at a rate of 0.1 Hz for the Ba^2+ current recordings. […] Recorded action potentials were analyzed using Clampfit 10.4 (Axon Instruments).
# [4] = test system: TS cardiomyocytes derived from hiPSCs; settings: high dose; cited from earlier work
# [5] = test system: Cav1.2 with Timothy syndrome mutation; settings: heterologous over-expression system; cited from earlier work
# [6] = withdrawn from US market in 2000; cited from earlier work
# T1 sequence (Q00535 whole entry): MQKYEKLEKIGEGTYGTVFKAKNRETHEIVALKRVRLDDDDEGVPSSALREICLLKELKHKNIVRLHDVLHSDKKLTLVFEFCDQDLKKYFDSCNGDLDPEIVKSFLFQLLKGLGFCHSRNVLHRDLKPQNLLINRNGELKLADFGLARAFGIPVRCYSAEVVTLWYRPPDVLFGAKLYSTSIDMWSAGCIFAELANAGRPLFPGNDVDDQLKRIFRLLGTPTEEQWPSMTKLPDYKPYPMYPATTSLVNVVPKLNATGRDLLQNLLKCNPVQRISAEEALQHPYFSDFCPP
# T1 sequence (Q15078 whole entry partner): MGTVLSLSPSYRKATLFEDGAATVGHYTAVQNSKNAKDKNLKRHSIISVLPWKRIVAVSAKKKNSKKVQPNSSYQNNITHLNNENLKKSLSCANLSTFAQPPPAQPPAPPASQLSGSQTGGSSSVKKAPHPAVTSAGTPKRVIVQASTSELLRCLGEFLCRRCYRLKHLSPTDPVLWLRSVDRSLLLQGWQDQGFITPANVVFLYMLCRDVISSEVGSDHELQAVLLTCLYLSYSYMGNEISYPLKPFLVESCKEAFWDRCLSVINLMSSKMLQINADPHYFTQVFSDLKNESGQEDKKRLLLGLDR
smiles,measurement,setting,value
CC[C@H](CO)Nc1nc(NCc2ccc(-c3ccccn3)cc2)c2ncn(C(C)C)c2n1 [CR8],"effects on Timothy syndrome cardiomyocytes (spontaneous beating rate, contraction irregularity)",[1],beneficial effects
COc1ccc(CNc2nc(NCc3ccc(OC)cc3)c3ncn(C4CCCCC4)c3n2)cc1 [Myoseverin B],"effects on Timothy syndrome cardiomyocytes (spontaneous beating rate, contraction irregularity)",[1],beneficial effects
CC(C)CC(=O)Nc1[nH]nc2c1CN(C(=O)C1CCN(C)CC1)C2(C)C [PHA-793887],"effects on Timothy syndrome cardiomyocytes (spontaneous beating rate, contraction irregularity)",[1],beneficial effects
same,luminescence signal (phosphorylation of substrate by CDK5),[2],reduced; also recorded: blocked the phosphorylation
CC[C@H](CO)Nc1nc(NCc2ccccc2)c2ncn(C(C)C)c2n1 [Roscovitine],voltage-dependent inactivation of Cav1.2,[3],did not further enhance; also recorded: did not significantly enhance
same,cardiac phenotypes of TS cardiomyocytes,[4],rescue the cardiac phenotypes
same,voltage-dependent inactivation of Cav1.2 with Timothy syndrome mutation,[5],enhance the voltage-dependent inactivation
COc1cc(N)c(Cl)cc1C(=O)NC1CCN(CCCOc2ccc(F)cc2)CC1OC (centres unmarked) [cisapride],side effect,[6],QT prolongation
